The values that follow are results of earlier work, collected in patent US7193081B2, “Process for preparation of cyclic prodrugs of PMEA and PMPA” (Metabasis Therapeutics, Inc., priority 2002, dated 2007).

The subject of one series is hepatitis B. The note with it: against hepatitis B.
For the next series, the system named is HIV. The note with it: against HIV.

Regarding `Nc1ncnc2c1ncn2CCOCP(=O)(O)O` [PMEA, 9-(2-phosphonylmethoxyethyl)adenine], the antiviral activity result in the series on hepatitis B and in the series with HIV was “exhibit antiviral activity” in each case.

In the case of `C[C@H](Cn1cnc2c(N)ncnc21)OCP(=O)(O)O` [PMPA, (R)-9-(2-phosphonyl-methoxypropyl)adenine], the antiviral activity result in the series with hepatitis B and in the series with HIV was “exhibit antiviral activity” each time.
